Read-outs that look alike come from different tables or passages of the source.

Series [1] relates to PAE cells. Nature of the series: Growth dose response (IC50) in PAE. It is filed as cell-based, porcine. The following applies: Sus scrofa, read-out: Growth IC50 (M) in PAE. The text has this: FIG. 6: Dose response curves were constructed for all the SMs of interest using PAE cells. Data were fitted to non-linear sigmoid curves using GraphPad Prism (GraphPad Software, Inc., La Jolla, Calif.).
Dose response curves were constructed for all the SM of interest using PAE cells. Data were fitted to non-linear sigmoid curves using GraphPad Prism (GraphPad software, Inc.).

Series [2] can be described thus: in vitro. The following applies: pig.
Series [3] relates to SK-ML-1 tumors. The series can be described thus: SK-ML-1 tumor xenograft. The following applies: 100 μl of 10 μM IP, three times a week for four weeks.
In series [4] the test system is PAE cells. The series can be described thus: Fluorescence-release cytotoxicity assay. The following applies: endothelial cells.
Series [5] deals with endothelial cells. The series can be described thus: Primary screening: cell-based growth HTS and tube formation HTS (bioactivity class).
Method: All assays were performed in clear bottom black 96-well plates. The plates were always arranged to include a column for negative controls (column 1), a column for positive controls (column 12), and 10 columns for evaluation of 80 compounds. In order to increase stringency and avoid false positives in the HTS assays, all compounds were tested at a low final concentration of 1 μM.
In summary, 1,000 cells/well were seeded in the 96-well plates described above. Cells in columns 2-12 were seeded in 10% FBS and cells in column 1 (negative control) were seeded in 0% FBS. Small molecules (80 per plate) were added in columns 2-11 at a final concentration of 1 μM (both positive and negative controls were exposed to the same percentage of DMSO in wells containing test compounds). The fluorescence emitted by every well was measured spectrophotometrically (Infinite M200, TECAN®, Mannedorf, Switzerland) every 24 hours for 5-7 days.
In summary, 20,000 cells/well were seeded on top of 50 μl of pre-gelled GELTREX® gel matrix (Invitrogen, Carlsbad, Calif.). All cells were seeded in 10% FBS. […] Small molecules (80 per plate) were added to columns 2-11 at a final concentration of 1 μM (both positive and negative controls were exposed to the same percentage of DMSO in wells containing test compounds). Plates were incubated for 5-7 hours and automatically imaged with the help of an epifluorescence microscope (Axiovert® 200M, Zeiss) equipped with a motorized stage and AxioVision® (Zeiss) software.
For hit detection, a stringent threshold (sigma 3.5) was applied to avoid false positives.
The target in series [6] is KDR(VEGFR2) (Homo sapiens, UniProt P35968). The series can be described thus: SelectScreen kinase activity profiling, KDR(VEGFR2). The following applies: VEGFR2 receptor. It is filed as biochemical.
Series [7] has as its system PAE cells.
Series [8] has as its system A549 tumors. The following applies: positive control; cited from earlier work.
Series [9] has as its system SK-ML-1 tumors. The following applies: positive control; cited from earlier work.

Chain of KDR(VEGFR2) (P35968 20-1356): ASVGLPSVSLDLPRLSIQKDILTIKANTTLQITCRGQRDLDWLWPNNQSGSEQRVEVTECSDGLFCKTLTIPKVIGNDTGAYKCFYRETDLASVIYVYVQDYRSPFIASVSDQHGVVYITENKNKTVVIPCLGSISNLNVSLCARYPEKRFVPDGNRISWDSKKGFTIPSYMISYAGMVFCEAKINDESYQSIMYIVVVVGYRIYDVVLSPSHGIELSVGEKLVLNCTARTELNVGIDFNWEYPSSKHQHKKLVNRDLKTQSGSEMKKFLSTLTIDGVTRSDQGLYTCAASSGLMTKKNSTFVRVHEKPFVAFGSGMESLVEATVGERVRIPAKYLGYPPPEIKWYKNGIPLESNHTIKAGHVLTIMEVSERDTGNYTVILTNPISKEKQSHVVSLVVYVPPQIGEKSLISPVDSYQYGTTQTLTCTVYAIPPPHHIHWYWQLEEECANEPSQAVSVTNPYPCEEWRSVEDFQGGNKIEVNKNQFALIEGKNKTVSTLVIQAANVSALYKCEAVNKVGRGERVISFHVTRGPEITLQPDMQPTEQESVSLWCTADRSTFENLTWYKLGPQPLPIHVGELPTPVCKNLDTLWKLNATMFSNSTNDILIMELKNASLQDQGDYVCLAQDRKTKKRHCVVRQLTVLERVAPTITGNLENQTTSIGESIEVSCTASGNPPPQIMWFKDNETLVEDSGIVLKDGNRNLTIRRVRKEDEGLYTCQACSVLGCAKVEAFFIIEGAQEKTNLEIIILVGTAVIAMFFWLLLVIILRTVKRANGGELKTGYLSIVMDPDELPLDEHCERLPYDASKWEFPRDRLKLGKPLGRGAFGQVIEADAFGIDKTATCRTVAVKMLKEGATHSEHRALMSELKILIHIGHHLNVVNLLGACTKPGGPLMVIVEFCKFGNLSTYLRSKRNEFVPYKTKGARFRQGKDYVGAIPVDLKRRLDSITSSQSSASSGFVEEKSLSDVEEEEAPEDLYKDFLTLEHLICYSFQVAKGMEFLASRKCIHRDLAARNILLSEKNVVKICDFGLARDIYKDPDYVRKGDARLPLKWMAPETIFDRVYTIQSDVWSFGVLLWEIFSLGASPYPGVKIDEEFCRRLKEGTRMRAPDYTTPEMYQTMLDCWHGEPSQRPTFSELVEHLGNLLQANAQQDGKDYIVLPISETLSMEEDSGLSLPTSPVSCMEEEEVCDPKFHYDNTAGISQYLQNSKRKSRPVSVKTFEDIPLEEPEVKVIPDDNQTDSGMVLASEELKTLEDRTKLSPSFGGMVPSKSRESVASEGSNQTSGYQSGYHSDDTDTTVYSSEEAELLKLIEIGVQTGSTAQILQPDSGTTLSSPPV

By IC50 is commonly meant the concentration at which inhibition is half-maximal. On to `Cl.O=C1C(=Cc2ccccc2)C(NC2CCCCC2)c2ccccc21` (centres unmarked) [Compound 67, 2-benzylidene-3-(cyclohexylamino)-3H-inden-1-one chloride], for which the IC50 in [1] (PAE cells) came to 9.16e-11 M. The compound also displayed a cytotoxicity in [2] of 7.78%. Further, in [3], the “inhibition of tumor growth, SK-ML-1 xenograft” value is “potencies similar to AVASTIN®”. In series [4], the “cytotoxicity (in words)” value is “without cytotoxicity”. The “type of inhibition (endothelial cell growth and/or tube formation)” value is “inhibited both endothelial cell growth and tube formation” in series [5] (1 μM); “tube formation+growth” in [5] (1 μM, listed as NSC 150117).
With `O=[As](O)(O)c1ccc(Cc2ccc([As](=O)(O)O)cc2)cc1` [Compound 69, [4-[(4-arsonophenyl)methyl]phenyl]arsonic acid], the IC50 in series [1] (PAE) was 3.84e-10 M. Moreover, the “RTK inhibitory activity (in words)” value in series [6] is recorded as “showed RTK inhibitory activity”. For the same compound, the “cytotoxicity (in words)” value in series [7] was “without cytotoxicity”. The cytotoxicity in series [2] stood at 8.26%. The “inhibition of tumor growth, SK-ML-1 xenograft” value in [3] is reported as “potencies similar to AVASTIN®”. Also, the “type of inhibition (endothelial cell growth and/or tube formation)” value in [5] was “inhibited both endothelial cell growth and tube formation”.
For the compound “AVASTIN®: monoclonal antibody directed against an isoform of VEGF, marketed under the trade name Avastin®; known antiangiogenic drug, positive control”, the “inhibition of growth of A549 (previously shown)” value in series [8] was “significantly inhibit”. Also, the “inhibition of growth of SK-ML-1 (previously shown)” value in [9] is “significantly inhibit”.
